Assay results published in patent US11814352B2, “Salts formed by 2-(1-acyloxy-n-pentyl) benzoic acid and basic amino acid or aminoguanidine, and preparation method and application thereof” (JIANGSU KANION PHARMACEUTICAL CO., LTD., priority 2018, dated 2023).
Read-outs that look alike come from different tables or passages of the source.

Assays:
[1] = test system: AA induced platelet aggregation; assay: In vitro anti-platelet aggregation, AA induced (turbidimetry, PRP); format: cell-based, rabbits; details: read-out: IC50 AA (1 mM); rabbit PRP, inducer AA 1 mM, 37° C.
MCAO rats = assay: Cerebral infarction, cerebral edema and nerve function of rats with focal cerebral ischemia (MCAO); format: in vivo, SD rats; details: MCAO rats; for inhibition at 10 mg/kg/day: Rattus norvegicus
[2] = 10 mg/kg/day iv 3 days (combinations equimolar), first dose 2 h after reperfusion

CCCC[C@H](OC(C)=O)c1ccccc1C(=O)O [I1s, L-Arginine (S)-2-(1-Acetoxy-n-Pentyl) Benzoate] was tested, and the IC50 [1] was 160 ± 20 µM, the Cerebral edema (MCAO rats; [2]) was 0.18 ± 3.96% and the Infarct volume (MCAO rats; [2]) was 9.12 ± 1.18%. For the same molecule, the “Neurological function of rats with focal cerebral ischemia” value (MCAO rats; 10 mg/kg/day iv, 2 h after reperfusion) was “significant neurological improvement effects”, the inhibition at 10 mg/kg/day (MCAO rats; 10 mg/kg/day iv 3 days (combinations equimolar), first dose 2 h after reperfusion, read-out: Inhibition rate of cerebral edema) was 98.8% and the inhibition at 10 mg/kg/day (MCAO rats; 10 mg/kg/day iv 3 days (combinations equimolar), first dose 2 h after reperfusion, read-out: Inhibition rate of infarct volume) was 78.2%.
